Assay results: patent US20230322770A1, “SUBSTITUTED HETEROARYL COMPOUNDS USEFUL AS INHIBITORS OF TLR9” (BRISTOL-MYERS SQUIBB COMPANY, priority 2020, published 2023)

Tests used:
Format in all cases: cell-based
human TLR9 = biological target: T1, human TLR9 (Homo sapiens, UniProt Q9NR96); assay: TLR9 inhibition reporter assay (HEK-Blue cells, SEAP reporter); settings: HEK-Blue cells overexpressing human TLR9; stimulated with ODN2006 5 nM; SEAP after 22 hour incubation
T1 construct: host or cells: HEK-Blue cells (HEK293-derived reporter line)
T1 sequence (Q9NR96 26-1032): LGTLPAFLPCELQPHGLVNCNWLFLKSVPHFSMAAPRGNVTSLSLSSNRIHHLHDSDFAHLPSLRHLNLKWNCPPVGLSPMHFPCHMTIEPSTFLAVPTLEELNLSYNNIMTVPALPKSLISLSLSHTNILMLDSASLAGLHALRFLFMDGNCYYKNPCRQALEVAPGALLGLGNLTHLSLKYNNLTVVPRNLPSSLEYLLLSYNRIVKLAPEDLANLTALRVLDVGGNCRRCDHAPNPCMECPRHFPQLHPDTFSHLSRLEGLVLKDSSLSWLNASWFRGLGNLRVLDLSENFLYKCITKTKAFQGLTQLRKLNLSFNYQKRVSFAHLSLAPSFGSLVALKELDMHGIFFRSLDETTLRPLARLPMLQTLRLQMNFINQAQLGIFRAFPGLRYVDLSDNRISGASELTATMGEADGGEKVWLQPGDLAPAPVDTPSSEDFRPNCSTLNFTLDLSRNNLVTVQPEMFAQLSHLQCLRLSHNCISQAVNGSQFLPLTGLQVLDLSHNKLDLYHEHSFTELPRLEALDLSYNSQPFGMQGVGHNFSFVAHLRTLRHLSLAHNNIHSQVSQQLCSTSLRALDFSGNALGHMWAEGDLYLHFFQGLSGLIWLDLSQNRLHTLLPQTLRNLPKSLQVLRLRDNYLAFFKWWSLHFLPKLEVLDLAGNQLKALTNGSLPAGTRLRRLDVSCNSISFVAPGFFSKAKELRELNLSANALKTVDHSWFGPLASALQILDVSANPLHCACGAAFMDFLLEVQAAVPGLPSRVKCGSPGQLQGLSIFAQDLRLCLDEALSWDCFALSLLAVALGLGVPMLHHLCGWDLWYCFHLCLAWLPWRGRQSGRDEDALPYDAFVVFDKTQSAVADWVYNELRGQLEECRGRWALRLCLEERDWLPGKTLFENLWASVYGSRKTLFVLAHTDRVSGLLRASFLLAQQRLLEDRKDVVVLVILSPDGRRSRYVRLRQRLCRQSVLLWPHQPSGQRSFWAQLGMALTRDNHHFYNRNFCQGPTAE
Experimental: (§1) TLR7/8/9 Inhibition Reporter Assays
(§2) HEK-Blue™-cells (Invivogen) overexpressing human TLR7, TLR8 or TLR9 receptors were used for screening inhibitors of these receptors using an inducible SEAP (secreted embryonic alkaline phosphatase) reporter gene under the control of the IFN-β minimal promoter fused to five NF-κB and AP-1-binding sites. Briefly, cells are seeded into Greiner 384 well plates (15000 cells per well for TLR7, 20,000 for TLR8 and 25,000 for TLR9) and then treated with test compounds in DMSO to yield a final dose response concentration range of 0.05 nM-50 μM. After a 30 minute compound pre-treatment at room temperature, the cells are then stimulated with a TLR7 ligand (gardiquimod at a final concentration of 7.5 μM), TLR8 ligand (R848 at a final concentration of 15.9 μM) or TLR9 ligand (ODN2006 at a final concentration of 5 nM) to activate NF-κB and AP-1 which induce the production of SEAP. After a 22 hour incubation at 37° C., 5% CO2, SEAP levels are determined with the addition of HEK-Blue™ Detection reagent (Invivogen), a cell culture medium that allows for detection of SEAP, according to manufacturer's specifications. The percent inhibition is determined as the % reduction in the HEK-Blue signal present in wells treated with agonist plus DMSO alone compared to wells treated with a known inhibitor.

human TLR7 = biological target: T2, human TLR7 (Homo sapiens, UniProt Q9NYK1); assay: TLR7 inhibition reporter assay (HEK-Blue cells, SEAP reporter); settings: HEK-Blue cells overexpressing human TLR7; stimulated with gardiquimod 7.5 μM; SEAP after 22 hour incubation
T2 construct: host or cells: HEK-Blue cells (HEK293-derived reporter line)
T2 sequence (Q9NYK1 27-1049): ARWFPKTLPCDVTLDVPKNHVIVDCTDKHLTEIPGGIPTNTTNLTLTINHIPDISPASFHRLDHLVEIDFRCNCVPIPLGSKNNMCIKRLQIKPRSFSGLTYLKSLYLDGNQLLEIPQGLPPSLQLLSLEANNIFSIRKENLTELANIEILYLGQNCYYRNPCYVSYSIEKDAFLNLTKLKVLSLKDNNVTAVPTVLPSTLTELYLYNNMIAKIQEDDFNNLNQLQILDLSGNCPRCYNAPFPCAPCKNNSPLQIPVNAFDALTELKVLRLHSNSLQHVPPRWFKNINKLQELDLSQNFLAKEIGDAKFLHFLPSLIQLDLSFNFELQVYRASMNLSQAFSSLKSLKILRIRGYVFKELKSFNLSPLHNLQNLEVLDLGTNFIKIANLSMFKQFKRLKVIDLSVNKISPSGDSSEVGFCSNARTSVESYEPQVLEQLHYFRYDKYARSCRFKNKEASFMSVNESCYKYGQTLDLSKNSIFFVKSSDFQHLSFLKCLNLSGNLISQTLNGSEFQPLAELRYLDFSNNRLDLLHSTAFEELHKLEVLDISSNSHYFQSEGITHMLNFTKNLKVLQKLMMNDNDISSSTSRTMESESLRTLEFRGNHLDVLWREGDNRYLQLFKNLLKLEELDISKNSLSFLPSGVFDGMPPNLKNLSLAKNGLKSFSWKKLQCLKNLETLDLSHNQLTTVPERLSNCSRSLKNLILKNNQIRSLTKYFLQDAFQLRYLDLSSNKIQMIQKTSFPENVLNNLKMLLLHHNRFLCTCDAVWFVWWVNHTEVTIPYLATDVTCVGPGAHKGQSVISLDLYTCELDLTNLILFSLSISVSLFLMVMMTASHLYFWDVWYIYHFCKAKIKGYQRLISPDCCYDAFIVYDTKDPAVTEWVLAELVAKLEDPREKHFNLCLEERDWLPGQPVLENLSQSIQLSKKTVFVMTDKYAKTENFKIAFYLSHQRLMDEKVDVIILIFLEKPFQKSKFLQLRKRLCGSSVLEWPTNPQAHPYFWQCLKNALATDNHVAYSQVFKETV
Experimental: as §1, §2

human TLR8 = biological target: T3, human TLR8 (Homo sapiens, UniProt Q9NR97); assay: TLR8 inhibition reporter assay (HEK-Blue cells, SEAP reporter); settings: HEK-Blue cells overexpressing human TLR8; stimulated with R848 15.9 μM; SEAP after 22 hour incubation
T3 construct: host or cells: HEK-Blue cells (HEK293-derived reporter line)
T3 sequence (Q9NR97 27-1041): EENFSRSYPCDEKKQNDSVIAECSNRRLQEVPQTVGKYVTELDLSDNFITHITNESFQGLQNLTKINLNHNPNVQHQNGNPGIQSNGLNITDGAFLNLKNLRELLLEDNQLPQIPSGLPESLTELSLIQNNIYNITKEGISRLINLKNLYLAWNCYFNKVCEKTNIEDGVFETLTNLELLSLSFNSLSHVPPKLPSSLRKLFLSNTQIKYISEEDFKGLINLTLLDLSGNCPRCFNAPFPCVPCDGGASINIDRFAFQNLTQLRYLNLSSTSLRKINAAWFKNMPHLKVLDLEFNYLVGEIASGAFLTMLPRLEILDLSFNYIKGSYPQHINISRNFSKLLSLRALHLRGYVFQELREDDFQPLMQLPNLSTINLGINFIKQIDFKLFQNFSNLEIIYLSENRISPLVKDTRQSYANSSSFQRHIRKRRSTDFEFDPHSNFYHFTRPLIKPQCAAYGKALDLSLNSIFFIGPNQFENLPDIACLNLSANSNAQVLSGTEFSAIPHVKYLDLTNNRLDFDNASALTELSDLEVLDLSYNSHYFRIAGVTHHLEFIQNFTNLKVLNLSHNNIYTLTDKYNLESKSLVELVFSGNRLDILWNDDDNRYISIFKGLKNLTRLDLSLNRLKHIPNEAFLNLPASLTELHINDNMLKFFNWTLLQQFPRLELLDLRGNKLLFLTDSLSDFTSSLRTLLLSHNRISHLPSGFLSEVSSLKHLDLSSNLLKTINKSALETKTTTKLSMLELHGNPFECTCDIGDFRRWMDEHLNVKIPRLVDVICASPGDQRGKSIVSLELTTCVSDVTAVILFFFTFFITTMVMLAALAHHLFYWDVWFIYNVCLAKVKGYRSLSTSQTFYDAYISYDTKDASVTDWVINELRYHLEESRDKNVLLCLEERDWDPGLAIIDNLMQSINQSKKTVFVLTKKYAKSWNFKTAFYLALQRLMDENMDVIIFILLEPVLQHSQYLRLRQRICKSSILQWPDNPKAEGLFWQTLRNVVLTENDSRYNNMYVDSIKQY
Experimental: as §1, §2

Structure (SMILES)	IC50 (human TLR9) [µM]	IC50 (human TLR7) [µM]	IC50 (human TLR8) [µM]
COc1ccc(-c2cc3ncc(-c4ccc(N5CCN(C(C)C)CC5)cc4)cc3n2C)cc1OC [Example 1, 2-(3,4-Dimethoxyphenyl)-6-(4-(4-isopropylpiperazin-1-yl)phenyl)-1-methyl-1H-pyrrolo[3,2-b]pyridine]	0.094	7	7.2
CC(C)N1CCN(c2ccc(-c3cnc4cc(-c5ccc(S(C)(=O)=O)cc5)n(C)c4c3)cc2)CC1 [Example 2, 6-(4-(4-Isopropylpiperazin-1-yl)phenyl)-1-methyl-2-(4-(methylsulfonyl)phenyl)-1H-pyrrolo[3,2-b]pyridine]	0.139	2.7	7.6
CC(C)N1CCN(c2ccc(-c3cc4nc(-c5ccc(S(C)(=O)=O)cc5)cc-4n(C)c3)cc2)CC1 [Example 3, 6-(4-(4-isopropylpiperazin-1-yl)phenyl)-4-methyl-2-(4-(methylsulfonyl)phenyl)-4H-pyrrolo[3,2-b]pyridine]	0.018	9.7	11.1
COc1ccc(-c2cc3ccc(-c4ccc(N5CCN(C(C)C)CC5)cc4)nc3n2C)cc1OC [Example 7, 2-(3,4-Dimethoxyphenyl)-6-(4-(4-isopropylpiperazin-1-yl)phenyl)-1-methyl-1H-pyrrolo[2,3-b]pyridine]	4.58	≥ 50	≥ 50
Cn1c(-c2ccc(S(C)(=O)=O)cc2)cc2ncc(-c3ccc(CN4CCN(CCC(C)(C)O)CC4)cc3)cc21 [Example 19, 2-Methyl-4-(4-(4-(1-methyl-2-(4-(methylsulfonyl)phenyl)-1H-pyrrolo[3,2-b]pyridin-6-yl)benzyl)piperazin-1-yl)butan-2-ol]	0.663	7.9	4.3
Cn1c(-c2ccc(S(C)(=O)=O)cc2)cc2ncc(-c3ccc(N4CCNCC4)cc3)cc21 [Example 20, 1-Methyl-2-(4-(methylsulfonyl)phenyl)-6-(4-(piperazin-1-yl)phenyl)-1H-pyrrolo[3,2-b]pyridine]	0.171	2	2.4
Cn1c(-c2ccc(S(C)(=O)=O)cc2)cc2ncc(-c3ccc(CN4CCN(CC(C)(C)O)CC4)cc3)cc21 [Example 21]	0.206	9.6	8.1
Cn1c(-c2ccc(S(C)(=O)=O)cc2)cc2ncc(-c3ccc(CN4CCC(C)(O)CC4)cc3)cc21 [Example 22]	0.339	7.9	14.6
CC(C)N1CCN(Cc2ccc(-c3cnc4cc(-c5ccc(S(C)(=O)=O)cc5)n(C)c4c3)cc2)CC1 [Example 23]	0.069	> 50	23.2
CN(C)C1CCN(Cc2ccc(-c3cnc4cc(-c5ccc(S(C)(=O)=O)cc5)n(C)c4c3)cc2)CC1 [Example 24]	0.014	4.9	> 50
CCN1CCN(Cc2ccc(-c3cnc4cc(-c5ccc(S(C)(=O)=O)cc5)n(C)c4c3)cc2)CC1 [Example 25]	0.212	> 50	43.8
CC(C)N1CCN(c2ccc(-c3cnc4cc(-c5ccc(S(C)(=O)=O)cc5)n(C)c4c3)cc2)[C@H](C)C1 [Example 28]	0.236	3.2	5
CC(C)N1CCN(c2ccc(-c3cnc4cc(-c5ccc(S(C)(=O)=O)cc5)n(C)c4c3)cc2)C[C@@H]1C [Example 29]	0.722	3.3	2.3
CC(C)N1CCN(c2ccc(-c3cnc4cc(-c5ccc(S(C)(=O)=O)cc5)n(C)c4c3)cc2)[C@@H](C)C1 [Example 30]	0.576	4.8	5.3
CC(C)N1C[C@H](C)N(c2ccc(-c3cnc4cc(-c5ccc(S(C)(=O)=O)cc5)n(C)c4c3)cc2)[C@@H](C)C1 [Example 31]	0.48	2.5	4.5
CC(C)N1CCN(c2ccc(-c3cnc4cc(-c5ccc(S(C)(=O)=O)cc5)n(C)c4c3)cc2)C[C@H]1C [Example 32]	0.243	11.4	15.1
CN(C)S(=O)(=O)c1cccc(-c2cc3ncc(-c4ccc(N5CCN(C6CC6)CC5)cc4)cc3n2C)c1 [Example 44]	0.7		
Cn1c(-c2ccc(S(C)(=O)=O)cc2F)cc2ncc(-c3ccc(N4CCN(C5CC5)CC4)cc3)cc21 [Example 45]	> 50		
